Measured values as given in patent US8557816B2, “Aurora kinase modulators and method of use” (Amgen Inc., priority 2007, dated 2013).

Experiments:
AuroraB = target: T1, AuroraB (Homo sapiens, UniProt Q96GD4); test: AuroraB Homogeneous Time Resolved Fluorescent (HTRF) kinase assay; type: biochemical; conditions: average; read-out: AurB_IC50_IP (uM Avg)
T1 construct: 20 μL of AuroraB FL H is for a final volume of 41 μL; His
Experimental: AuroraB-Homogeneous Time Resolved Fluorescent (HTRF) Kinase Assay:
The AuroraB HTRF assay begins with AuroraB in the presence of ATP phosphorylating the biotinylated peptide Histone H3. The reaction incubates for about 90 min. the reaction is quenched by addition of detection reagents, which stop the reaction by diluting out the enzyme and chelating the metals due to the presence of EDTA. After addition, the assay is incubated for about 60 min to allow detection reagents to equilibrate.
The AuroraB HTRF assay comprises 1 μL of compound in 100% DMSO, 20 μL of ATP and biotinylated Histone H3, and 20 μL of AuroraB FL H is for a final volume of 41 μL. The final concentration of Histone H3 is 0.1 μM. […] Buffer conditions are as follows: 50 mM HEPES pH 7.5, 5 mM NaCl, 0.5 mM MgCl, 0.5 mM MnCl, 2 mM DTT, 0.05% BSA.
(§1) The assay is quenched and stopped with 160 μL of detection reagent. Detection reagents are as follows: Buffer made of 50 mM Tris, pH 7.5, 100 mM NaCl, 3 mM EDTA, 0.05% BSA, 0.1% Tween20. Added to this buffer prior to reading is Steptavidin allophycocyanin (SA-APC) at a final conc in the assay of 0.001 mg/mL, and europilated anti-phosphoHistoneH3 Ab (Eu-anti-HisH3) at a final conc of 0.064 nM.
The assay plate is read in either a Discovery or a RubyStar. The eu-anti-HisH3 is excited at 320 nm and emits at 615 nm to excite the SA-APC which in turn emits at 655 nm.

AuroraA-TPX2 = target: T2, AuroraA-TPX2 (Homo sapiens, UniProt O14965); test: AuroraA-TPX2 Homogeneous Time Resolved Fluorescent (HTRF) kinase assay; type: biochemical; conditions: average; read-out: AurA_IC50_IP (uM Avg)
T2 construct: 20 μL of AuroraA-TPX2 KD GST for a final volume of about 41 μL; GST
T2 sequence (O14965 133-383 limits assumed): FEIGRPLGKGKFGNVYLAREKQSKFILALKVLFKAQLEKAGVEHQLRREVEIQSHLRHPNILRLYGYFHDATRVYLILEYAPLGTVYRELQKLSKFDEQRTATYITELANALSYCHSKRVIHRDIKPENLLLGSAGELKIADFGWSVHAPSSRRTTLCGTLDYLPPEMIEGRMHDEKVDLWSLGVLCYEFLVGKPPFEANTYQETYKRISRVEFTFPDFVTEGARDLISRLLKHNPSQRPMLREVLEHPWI
T2 sequence (Q9ULW0 1-43 partner limits assumed): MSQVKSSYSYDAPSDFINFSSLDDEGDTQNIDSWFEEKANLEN
Experimental: AuroraA-TPX2-Homogeneous Time Resolved Fluorescent (HTRF) Kinase Assay:
The Aurora-A HTRF assay begins with Aurora-A in the presence of ATP phosphorylating the biotinylated peptide PLK. The reaction incubates for about 120 min. Detection reagents are added to quench the reaction. These agents stop the reaction by diluting out the enzyme and chelating the metals due to the presence of EDTA. After addition, the assay is incubated overnight to allow the detection reagents to equilibrate.
The AuroraA HTRF assay comprises 1 μL of compound in 100% DMSO, 20 μL of ATP and biotinylated PLK, and 20 μL of AuroraA-TPX2 KD GST for a final volume of about 41 μL. The final concentration of PLK is about 1 μM. […] Buffer conditions are as follows: 60 mM HEPES pH 7.5, 25 mM NaCl, 10 mM MgCl, 2 mM DTT, 0.05% BSA.
as §1, with “0.0005” for “0.001”, “anti-phosphoPLK” for “anti-phosphoHistoneH3”, “(Eu-anti-PLK)” for “(Eu-anti-HisH3)”, “0.02” for “0.064”
The assay plate is read in either a Discovery or a RubyStar. The eu-anti-PLK is excited at 320 nm and emits at 615 nm to excite the SA-APC which in turn emits at 655 nm.

T1 sequence (Q96GD4 whole entry): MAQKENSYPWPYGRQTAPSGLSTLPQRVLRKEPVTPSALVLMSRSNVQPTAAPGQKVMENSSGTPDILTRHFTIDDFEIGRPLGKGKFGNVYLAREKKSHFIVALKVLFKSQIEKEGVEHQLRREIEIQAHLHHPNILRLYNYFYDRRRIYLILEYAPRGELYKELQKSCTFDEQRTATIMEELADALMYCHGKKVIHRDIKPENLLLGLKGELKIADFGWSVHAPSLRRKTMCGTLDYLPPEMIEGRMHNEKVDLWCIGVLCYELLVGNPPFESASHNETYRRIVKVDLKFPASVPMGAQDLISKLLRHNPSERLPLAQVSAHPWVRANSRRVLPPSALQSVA

IC50 (AuroraB) | IC50 (AuroraA-TPX2) | Compound
0.015 µM | 0.332 µM | N#Cc1cnc2c(Oc3ccc(Nc4nnc(-c5ccccc5)c5ccccc45)cc3)ccnc2c1 [Example 44, 8-(4-(4-phenylphthalazin-1-ylamino)phenoxy)-1,5-naphthyridine-3-carbonitrile]
0.03 µM | 0.079 µM | Cn1cc(-c2ccc3nccc(Oc4ccc(Nc5nnc(-c6ccccc6)c6ccccc56)cc4)c3c2)cn1 [Example 45, N-(4-(6-(1-Methyl-1H-pyrazol-4-yl)quinolin-4-yloxy)phenyl)-4-phenylphthalazin-1-amine]
0.001 µM | 0.015 µM | NC(=O)c1cc2nccc(Oc3ccc(Nc4nnc(-c5ccccc5)c5ccccc45)cc3)c2s1 [Example 46, 7-(4-(4-phenylphthalazin-1-ylamino)phenoxy)thieno[3,2-b]pyridine-2-carboxamide]
0.138 µM | 5 µM | COc1ccc(F)cc1-c1nnc(Nc2ccc(Oc3ccnc4cc(C(N)=O)ccc34)cc2)c2ccccc12 [Example 47, 4-(4-(4-(5-fluoro-2-methoxyphenyl)phthalazin-1-ylamino)phenoxy)quinoline-7-carboxamide]
0.048 µM | 0.135 µM | FC(F)Oc1cnc2c(Sc3ccc(Nc4nnc(-c5ccccc5)c5ccccc45)cc3)ccnc2c1 [Example 387, N-(4-(7-(difluoromethoxy)-1,5-naphthyridin-4-ylthio)phenyl)-4-phenylphthalazin-1-amine]
0.003 µM | 0.02 µM | Oc1ccc2nccc(Sc3ccc(Nc4nnc(-c5ccc(Cl)cc5)c5ccccc45)cc3)c2c1 [Example 388, 4-(4-(4-(4-Chlorophenyl)phthalazin-1-ylamino)phenylthio)quinolin-6-ol]
0.022 µM | 0.021 µM | COCCOCCOc1ccc2nccc(Sc3ccc(Nc4nnc(-c5ccc(Cl)cc5)c5ccccc45)cc3)c2c1 [Example 389, 4-(4-Chlorophenyl)-N-(4-(6-(2-(2-methoxyethoxy)ethoxy)quinolin-4-ylthio)phenyl)phthalazin-1-amine]
> 125 µM | > 125 µM | CS(=O)(=O)CCOc1ccc2nccc(Sc3ccc(Nc4nnc(-c5ccc(Cl)cc5)c5ccccc45)cc3)c2c1 [Example 390, 4-(4-Chlorophenyl)-N-(4-(6-(2-(methylsulfonyl)ethoxy)quinolin-4-ylthio)phenyl)phthalazin-1-amine]
0.018 µM | 0.601 µM | Clc1ccc(-c2nnc(Nc3ccc(Sc4ccnc5ccoc45)cc3)c3ccccc23)nc1 [Example 391, 4-(5-Chloropyridin-2-yl)-N-(4-(furo[3,2-b]pyridin-7-ylthio)phenyl)phthalazin-1-amine]
0.26 µM | 0.159 µM | COc1cc2nccc(Oc3ccc(Nc4nnc(-c5ccccc5)c5ccccc45)cc3)c2cc1C#N [Example 392, 7-Methoxy-4-(4-(4-phenylphthalazin-1-ylamino)phenoxy)quinoline-6-carbonitrile]
0.017 µM | 0.013 µM | COCCOc1cc2nccc(Oc3ccc(Nc4nnc(-c5ccccc5)c5ccccc45)cc3)c2cc1OC [Example 393, N-(4-(6-Methoxy-7-(2-methoxyethoxy)quinolin-4-yloxy)phenyl)-4-phenylphthalazin-1-amine]
0.009 µM | 0.015 µM | COc1cnc2c(Oc3ccc(Nc4nnc(-c5ccc(Cl)c(OCCS(C)(=O)=O)c5)c5ccccc45)cc3)ccnc2c1 [Example 394, 4-(4-Chloro-3-(2-(methylsulfonyl)ethoxy)phenyl)-N-(4-(7-methoxy-1,5-naphthyridin-4-yloxy)phenyl)phthalazin-1-amine]
0.012 µM | 0.047 µM | COCCOc1cc(-c2nnc(Nc3ccc(Oc4ccnc5cc(OC)cnc45)cc3)c3ccccc23)ccc1C [Example 395, N-(4-(7-Methoxy-1,5-naphthyridin-4-yloxy)phenyl)-4-(3-(2-methoxyethoxy)-4-methylphenyl)phthalazin-1-amine]
> 125 µM | 0.05 µM | COc1cnc2c(Sc3ccc(Nc4nnc(-c5ccn(C)c(=O)c5)c5ccccc45)cc3)ccnc2c1 [Example 396, 4-(4-(4-(7-Methoxy-1,5-naphthyridin-4-ylthio)phenylamino)phthalazin-1-yl)-1-methylpyridin-2(1H)-one]
0.059 µM | 1.73 µM | Cc1ccc(-c2nnc(Nc3ccc(Sc4ccnc5ccoc45)cc3)c3ccccc23)cc1F [Example 398, 4-(3-Fluoro-4-methylphenyl)-N-(4-(furo[3,2-b]pyridin-7-ylthio)phenyl)phthalazin-1-amine]
0.025 µM | 0.286 µM | Nc1ccc2nccc(Sc3ccc(Nc4nnc(-c5ccccc5)c5ccccc45)cc3)c2c1 [Example 399, N-(4-(6-Aminoquinolin-4-ylthio)phenyl)-4-phenylphthalazin-1-amine]
0.052 µM | 0.847 µM | COc1cnc2c(Sc3ccc(Nc4nnc(C5=CCNCC5)c5ccccc45)cc3)ccnc2c1 [Example 401, N-(4-(7-Methoxy-1,5-naphthyridin-4-ylthio)phenyl)-4-(1,2,3,6-tetrahydropyridin-4-yl)phthalazin-1-amine]
0.015 µM | 0.167 µM | COc1cnc2c(Sc3ccc(Nc4nnc(OC)c5ccccc45)cc3)ccnc2c1 [Example 402, 4-Methoxy-N-(4-(7-methoxy-1,5-naphthyridin-4-ylthio)phenyl)phthalazin-1-amine]
0.005 µM | 0.239 µM | COc1cnc2c(Sc3ccc(Nc4nnc(OCCC5CCCCN5)c5ccccc45)cc3)ccnc2c1 (centres unmarked) [Example 403, N-(4-(7-Methoxy-1,5-naphthyridin-4-ylthio)phenyl)-4-(2-(piperidin-2-yl)ethoxy)phthalazin-1-amine]
0.009 µM | 0.447 µM | COc1cnc2c(Sc3ccc(Nc4nnc(C#N)c5ccccc45)cc3)ccnc2c1 [Example 404, 4-(4-(7-Methoxy-1,5-naphthyridin-4-ylthio)phenylamino)phthalazine-1-carbonitrile]
0.007 µM | 0.042 µM | O=c1ccc2nccc(Sc3ccc(Nc4nnc(-c5ccc(Cl)cn5)c5ccccc45)cc3)c2[nH]1 [Example 405, 8-(4-(4-(5-Chloropyridin-2-yl)phthalazin-1-ylamino)phenylthio)-1,5-naphthyridin-2(1H)-one]
0.186 µM | 0.034 µM | COc1cc2nccc(Sc3ccc(Nc4nnc(-c5ccc(Cl)cc5)c5ccccc45)cc3)c2[nH]c1=O [Example 406, 8-(4-(4-(4-Chlorophenyl)phthalazin-1-ylamino)phenylthio)-3-methoxy-1,5-naphthyridin-2(1H)-one]
0.004 µM | 0.016 µM | COc1cnc2c(Oc3ccc(Nc4nnc(-c5cc(CO)cs5)c5ccccc45)cc3)ccnc2c1 [Example 407, (5-(4-(4-(7-Methoxy-1,5-naphthyridin-4-yloxy)phenylamino)phthalazin-1-yl)thiophen-3-yl)methanol]
0.009 µM | 0.024 µM | COc1cnc2c(Oc3ccc(Nc4nnc(-c5cc(CF)cs5)c5ccccc45)cc3)ccnc2c1 [Example 408, 4-(4-(Fluoromethyl)thiophen-2-yl)-N-(4-(7-methoxy-1,5-naphthyridin-4-yloxy)phenyl)phthalazin-1-amine]
0.005 µM | 0.02 µM | Oc1cnc2c(Oc3ccc(Nc4nnc(-c5ccc(Cl)cc5)c5ccccc45)cc3)ccnc2c1 [Example 409, 8-(4-(4-(4-Chlorophenyl)phthalazin-1-ylamino)phenoxy)-1,5-naphthyridin-3-ol]
